# Assay results as given in BindingDB's records for doi:10.1016/j.bioorg.2016.01.003 (Panjab University, 2016).
# pKi: −log10 of the molar value.
# Tests used:
# Assay in all cases: Radioligand Binding Assay
# Adenosine receptor A1 = molecular target: T1, Adenosine receptor A1 (Homo sapiens, UniProt P30542)
# T1 sequence (P30542 whole entry): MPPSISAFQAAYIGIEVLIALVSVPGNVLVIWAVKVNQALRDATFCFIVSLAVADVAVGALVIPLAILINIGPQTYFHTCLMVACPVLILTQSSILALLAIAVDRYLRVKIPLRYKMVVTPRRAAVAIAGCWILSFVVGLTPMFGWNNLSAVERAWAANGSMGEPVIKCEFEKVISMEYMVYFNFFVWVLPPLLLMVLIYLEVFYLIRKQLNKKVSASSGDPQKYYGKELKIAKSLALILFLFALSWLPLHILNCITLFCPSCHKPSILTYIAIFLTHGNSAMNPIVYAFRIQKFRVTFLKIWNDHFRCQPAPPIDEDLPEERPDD
# Method: (§1) Dissociation constants at A1, A2A and A3 receptors (Ki-values) were determined in radioligand competition experiments as reported earlier [19,20]. All binding experiments were done in a microplate format utilizing a 96-well microplate filtration system (Millipore Multiscreen MAFC). As radioligands the agonists [3H]CCPA (1 nM) for A1, [3H]NECA (10 nM) for A2A, and [3H]HEMADO (1 nM) for A3 receptors were used. Samples were incubated with 10 µg of membrane protein for 3 h at 25 °C, filtered through the built-in filter at the bottom of the wells and washed three times with […] of ice-cold binding buffer. After addition of 20 µl of scintillator to the dried filter plates samples were counted in a Wallac Micro-Beta counter. Nonspecific binding was determined in the presence of 1 mM theophylline ([3H]CCPA) or […] (N6-phenylisopropyladenosine; [3H]NECA and [3H] HEMADO).
# Adenosine receptor A2a = Adenosine receptor A2a (Homo sapiens, UniProt P29274)
# Adenosine receptor A2a, sequence (P29274 whole entry): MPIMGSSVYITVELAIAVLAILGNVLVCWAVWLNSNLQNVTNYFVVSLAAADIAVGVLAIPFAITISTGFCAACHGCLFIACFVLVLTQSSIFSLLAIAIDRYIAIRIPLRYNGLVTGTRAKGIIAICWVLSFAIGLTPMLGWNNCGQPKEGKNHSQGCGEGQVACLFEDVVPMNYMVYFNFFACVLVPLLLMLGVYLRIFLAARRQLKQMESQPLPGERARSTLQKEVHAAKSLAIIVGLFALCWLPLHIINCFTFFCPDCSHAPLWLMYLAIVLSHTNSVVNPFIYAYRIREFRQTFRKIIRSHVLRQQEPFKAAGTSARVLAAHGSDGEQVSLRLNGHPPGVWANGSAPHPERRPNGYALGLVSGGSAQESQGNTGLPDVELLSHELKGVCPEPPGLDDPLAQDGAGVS
# Method: as §1
# Adenosine receptor A2b = molecular target: T2, Adenosine receptor A2b (Homo sapiens, UniProt P29275)
# T2 sequence (P29275 whole entry): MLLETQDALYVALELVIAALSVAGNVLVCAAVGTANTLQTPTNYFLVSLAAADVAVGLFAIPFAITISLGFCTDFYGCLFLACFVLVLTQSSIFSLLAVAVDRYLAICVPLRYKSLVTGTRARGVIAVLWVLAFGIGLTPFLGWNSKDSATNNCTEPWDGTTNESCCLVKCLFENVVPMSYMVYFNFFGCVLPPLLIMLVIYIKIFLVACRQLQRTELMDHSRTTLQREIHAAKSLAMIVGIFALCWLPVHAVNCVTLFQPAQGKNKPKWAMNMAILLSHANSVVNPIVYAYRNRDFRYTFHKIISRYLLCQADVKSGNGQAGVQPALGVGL
SMILES,pKi (Adenosine receptor A1),pKi (Adenosine receptor A2a),pKi (Adenosine receptor A2b)
"COc1cc(-c2nc3c([nH]2)c(=O)n(C)c(=O)n3C)ccc1OCC(=O)N1CCCC1 [1,3-Dimethyl-8-[3-methoxy-4-{2-(pyrrolidin-1-yl)-2-oxoethoxy}-phenyl]xanthine (15c, RB-392)]",< 4.52,5.34,< 4.52
"COc1cc(-c2nc3c([nH]2)c(=O)n(C)c(=O)n3C)ccc1OCC(=O)N1CCOCC1 [1,3-Dimethyl-8-[3-methoxy-4-{2-(morpholin-1-yl)-2-oxoethoxy}-phenyl]xanthine (15f, RB-385)]",< 4.52,5.56,< 4.52
"CCN(CC)CCNC(=O)COc1ccc(-c2nc3c([nH]2)c(=O)n(C)c(=O)n3C)cc1 [8-[4-{2-(Diethylaminoethylamino)-2-oxoethoxy}-phenyl]-1,3-dimethylxanthine (13b, RB-421)]",6.53,7.20,6.01
"Cn1c(=O)c2[nH]c(-c3ccc(OCC(=O)N4CCCCCC4)cc3)nc2n(C)c1=O [1,3-Dimethyl-8-[4-{2-(hexamethyleneimin-1-yl)-2-oxoethoxy}-phenyl]xanthine (13e, RB-424)]",6.22,6.56,6.35
"Cn1c(=O)c2[nH]c(-c3cccc(OCC(=O)N4CCCCC4)c3)nc2n(C)c1=O [1,3-Dimethyl-8-[3-{2-(piperidin-1-yl)]-2-oxoethoxy}-phenyl]xanthine (14d, RB-382)]",5.82,6.68,5.39
"COc1ccc(CCNC(=O)COc2cc(-c3nc4c([nH]3)c(=O)n(C)c(=O)n4C)ccc2OC)cc1OC [1,3-Dimethyl-8-[{3-(2-(homoveratrylamino)-2-oxoethoxy)-4-methoxy}-phenyl]xanthine (16i, RB-412)]",< 4.52,6.11,< 4.52
"COc1cc(-c2nc3c([nH]2)c(=O)n(C)c(=O)n3C)ccc1OCC(=O)N1CCCCCC1 [1,3-Dimethyl-8-[{4-(2-(hexamethyleneimin-1-yl)-2-oxoethoxy)-3-methoxy}-phenyl]xanthine (15e, RB-387)]",< 5.00,5.62,5.11
"COc1cc(-c2nc3c([nH]2)c(=O)n(C)c(=O)n3C)ccc1OCC(=O)N1CCN(C)CC1 [1,3-Dimethyl-8-[3-methoxy-4-{2-(1-methylpiperazin-4-yl)-2-oxoethoxy}-phenyl]-xanthine (15g, RB-446)]",< 4.52,5.38,< 5.00
"COc1ccc(-c2nc3c([nH]2)c(=O)n(C)c(=O)n3C)cc1OCC(=O)N1CCCCC1 [1,3-Dimethyl-8-[4-methoxy-3-{2-(piperidin-1-yl)-2-oxoethoxy}-phenyl]xanthine (16d, RB-417)]",5.79,7.12,< 5.00
"COc1ccc(CCNC(=O)COc2ccc(-c3nc4c([nH]3)c(=O)n(C)c(=O)n4C)cc2OC)cc1OC [1,3-Dimethyl-8-[{4-(2-(homoveratrylamino)-2-oxoethoxy)-3-methoxy}-phenyl]-xanthine (15i, RB-389)]",< 4.52,6.07,< 4.52
"Cn1c(=O)c2[nH]c(-c3ccc(OCC(=O)N4CCCCC4)cc3)nc2n(C)c1=O [1,3-Dimethyl-8-[4-{2-(piperidin-1-yl)-2-oxoethoxy}-phenyl]xanthine (13d, RB-427)]",6.38,6.75,6.40
"COc1ccc(-c2nc3c([nH]2)c(=O)n(C)c(=O)n3C)cc1OCC(=O)N1CCOCC1 [1,3-Dimethyl-8-[4-methoxy-3-{(2-(morpholin-1-yl)-2-oxoethoxy}-phenyl]-xanthine (16f, RB-415)]",5.45,6.33,< 5.00
"Cn1c(=O)c2[nH]c(-c3cccc(OCC(=O)N4CCCCCC4)c3)nc2n(C)c1=O [1,3-Dimethyl-8-[3-{2-(hexamethyleneimin-1-yl)-2-oxoethoxy}-phenyl]xanthine (14e, RB-376)]",5.61,6.65,5.20
"COC(=O)COc1cc(-c2nc3c([nH]2)c(=O)n(C)c(=O)n3C)ccc1OC [1,3-Dimethyl-8-[{3-(2-methoxy-2-oxoethoxy)-4-methoxy}-phenyl]xanthine (16, RB-410)]",4.93,6.14,< 5.00
"CN1CCN(C(=O)COc2cccc(-c3nc4c([nH]3)c(=O)n(C)c(=O)n4C)c2)CC1 [1,3-Dimethyl-8-[3-{2-(1-methylpiperazin-4-yl)-2-oxoethoxy}-phenyl]xanthine (14g, RB-380)]",5.72,6.25,5.09
"COc1cc(-c2nc3c([nH]2)c(=O)n(C)c(=O)n3C)ccc1OCC(=O)N1CCCCC1 [1,3-Dimethyl-8-[3-methoxy-4-{2-(piperidin-1-yl)-2-oxoethoxy}-phenyl]xanthine (15d, RB-391)]",< 4.52,5.47,< 5.00
"Cn1c(=O)c2[nH]c(-c3cccc(OCC(=O)N4CCOCC4)c3)nc2n(C)c1=O [1,3-Dimethyl-8-[3-{2-(morpholin-1-yl)-2-oxoethoxy}-phenyl]xanthine (14f, RB-375)]",5.27,6.17,< 5.00
"COc1ccc(-c2nc3c([nH]2)c(=O)n(C)c(=O)n3C)cc1OCC(=O)N1CCCCCC1 [1,3-Dimethyl-8-[{3-(2-(hexamethyleneimin-1-yl)-2-oxoethoxy)-4-methoxy}-phenyl]xanthine (16e, RB-449)]",5.72,7.03,5.40
"COC(=O)COc1ccc(-c2nc3c([nH]2)c(=O)n(C)c(=O)n3C)cc1OC [1,3-Dimethyl-8-[{4-(2-methoxy-2-oxoethoxy)-3-methoxy}-phenyl]xanthine (15, RB-384)]",< 4.52,5.36,< 5.00
"COc1ccc(-c2nc3c([nH]2)c(=O)n(C)c(=O)n3C)cc1OCC(=O)N1CCN(C)CC1 [1,3-Dimethyl-8-[4-methoxy-3-{2-(1-methylpiperazin-4-yl)-2-oxo-ethoxy}-phenyl]xanthine (16g, RB-416)]",5.44,6.16,5.18
"Cn1c(=O)c2[nH]c(-c3cccc(OCC(=O)n4ccnc4)c3)nc2n(C)c1=O [1,3-Dimethyl-8-[3-{2-(imidazol-1-yl)-2-oxoethoxy}-phenyl]xanthine (14h, RB-445)]",< 4.52,6.29,< 4.52
"Cn1c(=O)c2[nH]c(-c3cccc(OCC(=O)N4CCCC4)c3)nc2n(C)c1=O [1,3-Dimethyl-8-[3-{2-(pyrrolidin-1-yl)-2-oxoethoxy}-phenyl]xanthine (14c, RB-381)]",5.48,6.63,< 5.00
"CCN(CC)CCNC(=O)COc1cccc(-c2nc3c([nH]2)c(=O)n(C)c(=O)n3C)c1 [8-[3-{2-(Diethylaminoethylamino)-2-oxoethoxy}-phenyl]-1,3-dimethylxanthine (14b, RB-378)]",5.91,6.75,5.31
"Cn1c(=O)c2[nH]c(-c3ccc(OCC(=O)N4CCCC4)cc3)nc2n(C)c1=O [1,3-Dimethyl-8-[4-{2-(pyrrolidin-1-yl)-2-oxoethoxy}-phenyl]xanthine (13c, RB-426)]",6.10,6.91,5.83
"COC(=O)COc1cccc(-c2nc3c([nH]2)c(=O)n(C)c(=O)n3C)c1 [1,3-Dimethyl-8-[3-(2-methoxy-2-oxoethoxy)-phenyl]xanthine (14, RB-374)]",5.40,6.43,< 5.00
